Results taken from patent US20130045952A1, “ABA Receptor Agonists for Increased Plant Stress Resistance” (Van Andel Research Institute, priority 2011, published 2013).

Assays:
Assay type in all cases: biochemical
His6-PYR1 / biotin-PP2C = target: T1, His6-PYR1 / biotin-PP2C (Arabidopsis thaliana, UniProt O49686); test: AlphaScreen luminescence proximity assay, PYR1-PP2C interaction; conditions: 100 nM His6-PYR1, 100 nM biotin-PP2C, 100 μM agonist; normalized against a pyrabactin control
T1 construct: made in house; host or cells: E. coli is stated for PYL1, PYL2 and the PP2Cs, not expressly for PYR1
T1 sequence (O49686 1-191): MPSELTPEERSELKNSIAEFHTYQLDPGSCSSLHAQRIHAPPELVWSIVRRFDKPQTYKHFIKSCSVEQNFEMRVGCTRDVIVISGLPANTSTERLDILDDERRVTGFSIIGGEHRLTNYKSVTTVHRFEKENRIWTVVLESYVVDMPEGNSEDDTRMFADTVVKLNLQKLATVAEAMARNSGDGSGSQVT
Protocol: (§1) Mutant proteins were expressed as H6GST-fusion proteins and purified by glutathione sepharose chromatography. Protein-protein interactions were determined by luminescence proximity AlphaScreen assay. Biotinylated PP2C proteins for the luminescence proximity assay were generated by in vivo biotinylation of avitag-PP2C fusion proteins. PP2C phosphatase activity was measured by phosphate release from a SnRK2.6 phosphoprotein.
(§2) Interactions between PYR/PYL and PP2Cs were assessed by luminescence-proximity AlphaScreen technology (Perkin Elmer). Briefly, biotinylated PP2Cs were attached to streptavidin-coated donor beads, and H6-tagged PYR/PYL receptors were attached to nickel-chelated acceptor beads. The donor and acceptor beads were brought into proximity by the interactions between PYR/PYLs and PP2Cs, which were measured with and without ligands. When excited by a laser beam of 680 nm, the donor beam emits singlet oxygen that activates thioxene derivatives in the acceptor beads, which releases photons of 520-620 nm as the binding signal. The experiments were conducted with 100 nM of PP2Cs and PYR/PYL proteins in the presence of 5 ug/ml donor and acceptor beads in a buffer of 50 mM MOPS, pH7.4, 50 mM NaF, […], and 0.1 mg/ml bovine serum albumin. The results were based on an average of three experiments with standard errors typically less than 10% of the measurements.
(§3) Values were determined in different experiments and normalized against a pyrabactin control. Blank spaces mean no experimental data is available. Key (photon counts (binding signal units) in Alphascreen luminescence proximity assay): “+++ is >75,000; ++ is 25,000−75,000; + is <25,000.

His6-PYL2 / biotin-PP2C = target: T2, His6-PYL2 / biotin-PP2C (Arabidopsis thaliana, UniProt O80992); test: AlphaScreen luminescence proximity assay, PYL2-PP2C interaction; conditions: 100 nM His6-PYL2, 100 nM biotin-PP2C, 100 μM agonist; normalized against a pyrabactin control
T2 construct: PYL2 (residues 14-188), and HAB1 (residues 172-511) were prepared as recombinant proteins in E. coli; made in house; host or cells: E. coli
T2 sequence (O80992 14-188): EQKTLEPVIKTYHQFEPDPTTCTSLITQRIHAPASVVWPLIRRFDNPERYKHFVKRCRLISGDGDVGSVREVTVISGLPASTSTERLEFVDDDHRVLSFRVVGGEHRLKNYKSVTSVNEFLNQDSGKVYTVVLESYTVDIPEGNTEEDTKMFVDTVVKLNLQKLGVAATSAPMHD
Protocol: as §1, §2, §3

His6-PYL3 / biotin-PP2C = target: T3, His6-PYL3 / biotin-PP2C (Arabidopsis thaliana, UniProt Q9SSM7); test: AlphaScreen luminescence proximity assay, PYL3-PP2C interaction; conditions: 100 nM His6-PYL3, 100 nM biotin-PP2C, 100 μM agonist; normalized against a pyrabactin control
T3 construct: made in house; host or cells: not expressly stated for PYL3
T3 sequence (Q9SSM7 1-209): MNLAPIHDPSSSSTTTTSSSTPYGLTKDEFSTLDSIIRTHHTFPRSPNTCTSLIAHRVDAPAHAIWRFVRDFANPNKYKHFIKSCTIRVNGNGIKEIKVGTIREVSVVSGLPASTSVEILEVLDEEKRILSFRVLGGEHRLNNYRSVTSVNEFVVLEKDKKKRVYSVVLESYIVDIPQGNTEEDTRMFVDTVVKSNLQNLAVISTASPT
Protocol: as §1, §2, §3

His6-PYL1 / biotin-PP2C = target: T4, His6-PYL1 / biotin-PP2C (Arabidopsis thaliana, UniProt Q8VZS8); test: AlphaScreen luminescence proximity assay, PYL1-PP2C interaction; conditions: 100 nM His6-PYL1, 100 nM biotin-PP2C, 100 μM agonist; normalized against a pyrabactin control
T4 construct: PYL1 (residues 36-211), PYL2 (residues 14-188), and HAB1 (residues 172-511) were prepared as recombinant proteins in E. coli; made in house; host or cells: E. coli
T4 sequence (Q8VZS8 36-211): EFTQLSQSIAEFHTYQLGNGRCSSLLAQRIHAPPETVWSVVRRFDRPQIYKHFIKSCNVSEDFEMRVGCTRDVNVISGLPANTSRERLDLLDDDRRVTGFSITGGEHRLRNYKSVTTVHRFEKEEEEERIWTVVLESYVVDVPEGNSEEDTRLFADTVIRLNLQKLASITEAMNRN
Protocol: as §1, §2, §3

Stimulation of the interaction between PYR1 and PP2C (binding signal) (His6-PYR1 / biotin-PP2C)	Stimulation of the interaction between PYL2 and PP2C (binding signal) (His6-PYL2 / biotin-PP2C)	Stimulation of the interaction between PYL3 and PP2C (binding signal) (His6-PYL3 / biotin-PP2C)	Stimulation of the interaction between PYL1 and PP2C (binding signal) (His6-PYL1 / biotin-PP2C)	SMILES
+ (+ is <25,000)	++ (++ is 25,000−75,000)	+ (+ is <25,000)	+ (+ is <25,000)	CCOC(=O)C1OC(NC(=O)CSc2nnc(-c3ccccc3OCC)o2)C(C#N)C1C (stereo not shown) [Compound 5]
++ (++ is 25,000−75,000)	+ (+ is <25,000)	++ (++ is 25,000−75,000)	–	O=C(CNS(=O)(=O)c1ccccc1)OCc1ccc(Cl)c(Cl)c1 [Compound 6]
+++ (+++ is >75,000)	–	+++ (+++ is >75,000)	–	O=S(=O)(NC[C@@H]1CCCO1)c1ccc(Br)c2ccccc12 [Compound 12]
++ (++ is 25,000−75,000)	++ (++ is 25,000−75,000)	+ (+ is <25,000)	++ (++ is 25,000−75,000)	CC(C)c1ccccc1OCCNS(=O)(=O)c1ccc2ccccc2c1 [Compound 7]
+ (+ is <25,000)	+ (+ is <25,000)	++ (++ is 25,000−75,000)	–	O=S(=O)(NCCOc1ccccc1)c1ccc2ccccc2c1 [Compound 8]
+ (+ is <25,000)	+ (+ is <25,000)	+ (+ is <25,000)	–	CC1(C)CC(=O)C(/C=N/CCc2ccc(S(N)(=O)=O)cc2)=C(O)C1 [Compound 10]
